One block for each compound: values may come before it.
Experiments:
Hdm2 = target: T1, Hdm2 (Homo sapiens, UniProt Q00987); assay: Cell-free ubiquitination assay; format: biochemical; details: 1 µM Hdm2, 1 µM Ube1, 10 µM UbcH5b, 10 µM peptide, wild type ubiquitin, 2 hours at 30°C
T1 construct: purchased Enzo Life Sciences
Procedure: Samples were run on gels and imaged as described above.
(§1) Figure 5 Variations in E3 ligase activity result in fluxuations in degron-based substrate ubiquitination. (A) To evaluate the impact of different levels of E3 ligase activity, the four top performing degron-based substrates (β-Catenin, Bonger, iNOS, and p53) were incubated in lysates from four different cell lines (HeLa, U937, THP-1, and HL60) in the ubiquitin pull down assay. Further, the assay was supplemented with wild type ubiquitin to examine polyubiquitin chain formation. All reaction mixtures were incubated for 2 hours at 37°C prior to continuation with the pull down assay. (B) The effects of a NEDD8 inhibitor (MLN-4924) and an E1 inhibitor (PYR-41) were examined on the TAZ-based substrate (a target of the SCF^βTrCP E3 ligase). The ubiquitin pull down was performed as previously described with the reactions incubated for 2 hours with the listed inhibitor concentrations at 37°C prior to continuation with the pull down assay. (C) A cell-free ubiquitination assay was performed on the p53-based substrate using an enzymatic cascade culminating with 1 µM Hdm2 and supplemented with wild type ubiquitin. Lane 1 contains all assay components, lane 2–4 were control experiments removing a member of the E1–E3 enzymatic cascade. […]

[1] = test system: TAZ-based substrate ubiquitination (a target of the SCF^βTrCP E3 ligase); assay: Ubiquitin pull down of TAZ-based substrate with inhibitors of the E1-E3 cascade; format: biochemical; details: 2 hours at 37°C with inhibitor, gel, concentrations only in Figure 5b
Procedure: as §1, with “assay.” for “assay. (C) A cell-free ubiquitination assay was performed on the p53-based substrate using an enzymatic cascade culminating with 1 µM Hdm2 and supplemented with wild type ubiquitin. Lane 1 contains all assay components, lane 2–4 were control experiments removing a member of the E1–E3 enzymatic cascade.”
To perform a more precise analysis of the impact of variations in E3 ligase activity on degron-based substrate ubiquitination and to identify any issues with peptide specificity, the second route of experimentation was the application of known inhibitors of the E1–E3 enzymatic cascade. […] To examine the effects of partially inhibiting SCF^βTrCP, TAZ-based substrate ubiquitination was assessed in the presence and absence of this inhibitor (Figure 5b).

[2] = test system: HeLa S100 cytosolic lysates as the source of E1, E2, and E3 enzymes; assay: Ubiquitin pull down assay with methylated ubiquitin, multi-monoubiquitination kinetic model; format: biochemical; details: ratio of fitted rate constants, >1 favours ubiquitination, <1 degradation
From the text: A second model based on substrate multi-monoubiquitination was developed and evaluated. This model assumed that the generation of di-, tri-, and tetra-ubiquitinated species was the result of multiple methylated ubiquitins being conjugated to the multiple available lysines found on the degron-based substrate (Figure 3a). As opposed to the polyubiquitination model, the multi-monoubiquitination model accurately fit the data for all eight degron-based substrates (Figure 3b–d, Figure S4 in File S1, Table 2). Using this model, kinetic rate constants for all ubiquitination (k1 for mono-, k2 for di-, k3 for tri-, and k4 for tetra-) and peptidase-dependent degradation steps (Table 2) were calculated. The multi-monoubiquitination model nicely corresponded to the observed results in Figure 2. […] The model also captured the preference for di-ubiquitination of the Cyclin D1 degron (k2 is two-fold greater than k1) and the equal preference of mono- and di-ubiquitination states found in the HIF-1α degron (k1 of 2.6 and k2 of 3.0). Further, the similar behavior and observed kinetics for IFNAR and TAZ degrons were mostly likely due to the fact that these degrons are recognized by the same E3 ligase, SCF^βTrCP (Table 1). To test the robustness of the multi-monoubiquitination model, a ninth substrate based on the degron from the protein β-Catenin was assessed. This substrate was selected because it is ubiquitinated by the same E3 ligase as TAZ and IFNAR1, SCF^βTrCP. The model accurately fit the data for the multi-monoubiquitination of the β-Catenin degron-based substrate with similar rate constants compared to the TAZ and IFNAR1-based substrates (Table 2). Finally, it was important to assess the validity of the model by addressing the relative goodness of fit between the experimental data and the model predictions as determined from the multi-monoubiquitination model. For this particular analysis it was decided to calculate the sample Pearson correlation coefficient (Eq. S10 in File S1), a widely used metric to measure the dependence between two variables. A correlation coefficient was calculated between the model predictions and experimental data for mono-, di-, tri-, and tetra-ubiquitinated substrate for all nine degron-based substrates (Table S1 in File S1). As per convention, a positive value approaching 1 corresponds to a very good fit, which is observed for all nine substrates indicating a good fit between model and data.

[3] = test system: endogenous proteases and peptidases found in the S100 lysates
SCF^βTrCP = details: published substrate; optimized test tube reaction with excess E1, E2, and E3 ligases, no competing peptidases; cited from earlier work
From the text: While there exist kinetic studies of specific E3 ligases, [47], [48] and individual degrons there has not been a comprehensive analysis of ubiquitination kinetics of multiple degrons in a single study. The presented work allowed for the calculation of rate constants for multiple degrons in a single cell line, effectively comparing the ubiquitination kinetics of different E3 ligase targets.

T1 sequence (Q00987 whole entry): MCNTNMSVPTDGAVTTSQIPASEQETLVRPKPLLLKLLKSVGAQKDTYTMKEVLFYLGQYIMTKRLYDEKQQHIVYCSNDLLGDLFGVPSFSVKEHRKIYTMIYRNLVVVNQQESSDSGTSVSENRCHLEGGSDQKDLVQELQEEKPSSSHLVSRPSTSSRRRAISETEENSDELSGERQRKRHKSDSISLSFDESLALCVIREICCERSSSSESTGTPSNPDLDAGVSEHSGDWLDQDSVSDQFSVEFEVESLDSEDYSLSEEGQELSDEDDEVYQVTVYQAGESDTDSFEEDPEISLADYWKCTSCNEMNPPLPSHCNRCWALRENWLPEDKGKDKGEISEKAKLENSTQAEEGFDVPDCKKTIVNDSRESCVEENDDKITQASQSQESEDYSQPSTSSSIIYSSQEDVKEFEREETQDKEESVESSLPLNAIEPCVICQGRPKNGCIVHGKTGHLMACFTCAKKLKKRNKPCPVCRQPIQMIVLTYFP

Compound: CN(C)CCCNc1c2c(=O)n(C)c(=O)nc-2n(C)c2ccccc12 [HLI-373]
- effect of inhibitor on Hdm2-dependent ubiquitination of the p53-based substrate (Hdm2; inhibitor 1, 10 µM): No decrease

Compound: NS(=O)(=O)OC[C@@H]1C[C@@H](n2ccc3c(N[C@H]4CCc5ccccc54)ncnc32)C[C@@H]1O [MLN-4924]
- effect of inhibitor on ubiquitination of the TAZ-based substrate [1]: slightly impaired

Compound: Cc1ccc2ccc(C(Nc3ccccc3)c3ccccc3)c(O)c2n1 (stereo not shown) [NSC-66811]
- effect of inhibitor on Hdm2-dependent ubiquitination of the p53-based substrate (Hdm2; inhibitor 1 µM dose): pronounced decrease

The next lines start with results.

- effect of inhibitor on ubiquitination of the TAZ-based substrate [1]: reduced ubiquitination
Compound: CCOC(=O)c1ccc(N2NC(=O)/C(=C/c3ccc([N+](=O)[O-])o3)C2=O)cc1 [PYR-41]

- k1/k5, mono-ubiquitination vs. degradation of unmodified substrate [2]: 1.55
- k6, rate constant for peptidase-dependent degradation of mono-ubiquitinated substrate [3]: 0.1 (1/min)*10^3
- k7, rate constant for peptidase-dependent degradation of di-ubiquitinated substrate [3]: 0.1 (1/min)*10^3
- k8, rate constant for peptidase-dependent degradation of tri-ubiquitinated substrate [3]: 1.0 (1/min)*10^3
- k9, rate constant for peptidase-dependent degradation of tetra-ubiquitinated substrate [3]: 3.0 (1/min)*10^3
Compound: KAWQQQSYLDSGIHSGATTTAPK(FAM)KKK [β-Catenin, fluorescein-tagged degron-based peptide substrate from β-Catenin, E3 ligase SCF^βTrCP]
- rate constant for β-Catenin ubiquitination previously reported (SCF^βTrCP): 0.28 min⁻¹
